In patent US20230086703A1, “N-(4-(5-chloropyridin-3-yl)phenyl)-2-(2-(cyclopropanesulfonamido)pyrimidin-4-yl) butanamide derivatives and related compounds as human CTPS1 inhibitors for the treatment of proliferative diseases” (Step Pharma S.A.S., priority 2019, published 2023):

Target: T1, human CTPS1 (Homo sapiens, UniProt P17812)
T1 construct: FLAG (with GG linker); His8 (with GG linker); purchased Proteros biostructures GmbH
T1 sequence (P17812 1-591): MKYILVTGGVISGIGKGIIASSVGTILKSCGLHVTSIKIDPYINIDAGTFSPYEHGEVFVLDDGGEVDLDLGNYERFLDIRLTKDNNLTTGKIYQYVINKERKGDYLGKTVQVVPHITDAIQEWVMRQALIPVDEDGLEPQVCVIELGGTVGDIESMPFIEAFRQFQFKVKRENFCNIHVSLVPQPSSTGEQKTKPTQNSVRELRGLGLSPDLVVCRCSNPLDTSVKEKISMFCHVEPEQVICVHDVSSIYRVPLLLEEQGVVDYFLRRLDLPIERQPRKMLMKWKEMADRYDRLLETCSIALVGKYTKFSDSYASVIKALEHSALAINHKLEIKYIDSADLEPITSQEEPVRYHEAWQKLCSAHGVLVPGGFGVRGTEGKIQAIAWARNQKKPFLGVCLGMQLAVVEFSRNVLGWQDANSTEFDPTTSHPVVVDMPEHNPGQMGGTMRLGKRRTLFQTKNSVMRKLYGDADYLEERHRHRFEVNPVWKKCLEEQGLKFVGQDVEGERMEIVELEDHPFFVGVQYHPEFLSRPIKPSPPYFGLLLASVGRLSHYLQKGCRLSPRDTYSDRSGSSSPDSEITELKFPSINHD
Experiment: RapidFire/MS-based enzyme selectivity assay (human CTPS1 versus CTPS2), CTPS1 isoform
Assay type: biochemical
Protocol: Human CTPS1 Versus CTPS2 Selectivity Assessment by RapidFire/MS Analysis.
The enzyme inhibitory activities against each target isoform of interest may be determined for the compounds of the invention using an optimised RapidFire high-throughput mass spectrometry (RF/MS) assay format. RF/MS assays for both human CTPS1 and CTPS2 may be performed in assay buffer consisting of 50 mM HEPES (Merck), 20 mM MgCl2, 5 mM KCl, 1 mM DTT, 0.01% Tween-20, pH to 8.0 accordingly. Human full-length active C-terminal FLAG-His-tag CTPS1 (UniProtKB—P17812, CTPS1[1-591]-[…] (CTPS1[1-591]-SEQ ID NO: 1)) may be obtained from Proteros biostructures GmbH. Human full length active C-terminal FLAG-His-Avi tagged CTPS2 (UniProtKB—Q9NRF8, CTPS2 [1-586]-[…] (CTPS2 [1-586]—SEQ ID NO: 2)) may be obtained from Harker Bio.
Human CTPS (1 or 2) protein may be prepared in 1× assay buffer to the final working protein concentration required for the reaction. A 2 uL volume per well of 2×CTPS (1 or 2) protein may be mixed with 40 nL of compound using acoustic (ECHO) delivery and incubated for 10 minutes at 25° C. Each isoform enzymatic reaction may be subsequently initiated by addition of 2 uL per well of a 2× substrate mix in assay buffer. For hCTPS1: ATP (0.3 mM), UTP (0.2 mM), GTP (0.07 mM) and L-glutamine (0.1 mM). For hCTPS2: ATP (0.1 mM), UTP (0.04 mM), GTP (0.03 mM) and L-glutamine (0.1 mM). Each mixture may be incubated for an appropriate amount of time per isoform within the determined linear phase of the reaction at 25° C. A 80 uL volume of stop solution (1% formic acid with 0.5 uM ^13C9-^15N3-CTP in H2O) may be added and the plate immediately heat-sealed and centrifuged for 10 minutes at 4,000 rpm. Following centrifugation, plates may be loaded onto the Agilent RapidFire microfluidic solid phase extraction system coupled to an API4000 triple quadrupole mass spectrometer (RF/MS) for analysis.
In all cases, the enzyme converts UTP to CTP. Highly specific and sensitive multiple reaction monitoring (MRM) MS methods may be optimised for the detection of the enzymatic reaction product, CTP, and the stable isotope labelled product standard ^13C9-^15N3-CTP. Readout for data analysis may be calculated as the ratio between the peak area of the product CTP and the internal standard ^13C9-^15N3-CTP. For data reporting, the following equation may be used:
(R=ratio/readout, P=product signal area, IS=internal standard signal area)
For each screening plate, the means of the negative (DMSO) and positive control values were used for the calculation of the respective assay window (S/B) and Z′ values. The median of the respective control values was used for calculation of percent inhibition according to the following equation:
(I=Inhibition, Rneq=median of negative control readout values, Rpos=median of positive control readout values, Rsample=sample readout value)
Percentage inhibition was then plotted against compound concentration, and the 50% inhibitory concentration (IC50) was determined from the resultant concentration-response curve.
Fold selectivity between CTPS1 and CTPS2 was subsequently calculated according to the following equation: […]

[1] = RapidFire/MS IC50 values of CTPS1 and CTPS2, Table 15
[2] = Table 16, human CTPS1 over human CTPS2, RapidFire/MS IC50 values

Row | Compound | Selectivity (fold selectivity between CTPS1 and CTPS2) [1] | Selectivity (fold selectivity between CTPS1 and CTPS2) [2]
1 | CC(C)Oc1cncc(-c2ccc(C(=O)NC(C)(C)c3cncc(NS(=O)(=O)C4CC4)n3)c(F)c2)n1 [P221, N-(2-(6-(cyclopropanesulfonamido)pyrazin-2-yl)propan-2-yl)-2-fluoro-4-(6-isopropoxypyrazin-2-yl)benzamide] | + (2-30 fold (+)) | –
2 | CC(C)(NC(=O)c1ccc(-c2cncc(C(F)(F)F)n2)cc1)c1cncc(NS(=O)(=O)C2CC2)n1 [P222, N-(2-(6-(cyclopropanesulfonamido)pyrazin-2-yl)propan-2-yl)-4-(6-(trifluoromethyl)pyrazin-2-yl)benzamide] | + (2-30 fold (+)) | –
3 | CCC(NC(=O)c1ccc(-c2cncc(F)c2)cc1)c1csc(NS(=O)(=O)C2CC2)n1 (single isomer, unassigned) [R68, N-(1-(2-(cyclopropanesulfon-amido)thiazol-4-yl)propyl)-4-(5-fluoropyridin-3-yl)benzamide] | – | ++ (>30-60 fold (++))
4 | O=C(NC1(c2csc(NS(=O)(=O)C3CC3)n2)CC1)c1ccc(-c2cncc(C(F)(F)F)n2)cc1 [R84, N-(1-(2-(cyclopropanesulfon-amido)thiazol-4-yl)cyclopropyl)-4-(6-(trifluoromethyl)pyrazin-2-yl)benzamide] | – | +++ (>60 fold (+++))
5 | CC(C)(NC(=O)c1ccc(-c2cncc(Cl)n2)cn1)c1csc(NS(=O)(=O)C2CC2)n1 [R25, 5-(6-chloropyrazin-2-yl)-N-(2-(2-(cyclopropanesulfonamido)thiazol-4-yl)propan-2-yl)picolinamide] | – | ++ (>30-60 fold (++))
6 | CCOc1cncc(-c2ccc(NC(=O)C(F)(CC)c3ccnc(NS(C)(=O)=O)n3)nc2)n1 (stereo not drawn) [P151, N-(5-(6-ethoxypyrazin-2-yl)pyridin-2-yl)-2-fluoro-2-(2-(methylsulfonamido)pyrimidin-4-yl)butanamide] | +++ (>60 fold (+++)) | –
7 | CCOc1cncc(-c2ccc(NC(=O)C(CC)c3ccnc(NS(=O)(=O)C4CC4)n3)c(C)c2)n1 (stereo not drawn) [P161, 2-(2-(cyclopropanesulfonamido)pyrimidin-4-yl)-N-(4-(9-ethoxypyrazin-2-yl)-2-methylphenyl)butanamide] | + (2-30 fold (+)) | –
8 | CCOc1cncc(-c2ccc(C(=O)NC3(c4csc(NS(=O)(=O)C5CC5)n4)CC3)c(F)c2)n1 [R82, N-(1-(2-(cyclopropanesulfon-amido)thiazol-4-yl)cyclo-propyl)-4-(6-ethoxypyrazin-2-yl)-2-fluorobenzamide] | – | +++ (>60 fold (+++))
9 | CCOc1cncc(-c2ccc(NC(=O)C3(c4cncc(NS(=O)(=O)C5CC5)n4)CCOCC3)nc2)n1 [P197, 4-(6-(cyclopropanesulfonamido)pyrazin-2-yl)-N-(5-(6-ethoxypyrazin-2-yl)pyridin-2-yl)tetrahydro-2H-pyran-4-carboxmaide] | +++ (>60 fold (+++)) | –
10 | CC(C)Oc1cncc(-c2ccc(NC(=O)Cc3ccnc(NS(=O)(=O)C4CC4)n3)c(F)c2)n1 [P12, 2-(2-(cyclopropanesulfonamido)pyrimidin-4-yl)-N-(2-fluoro-4-(6-isopropoxypyrazin-2-yl)phenyl)acetamide] | ++ (>30-60 fold (++)) | –
11 | CC(C)Oc1cncc(-c2ccc(C(=O)NC(C)(C)c3csc(NS(=O)(=O)C4CC4)n3)cc2)n1 [R56, N-(2-(2-(cyclopropanesulfon-amido)thiazol-4-yl)propan-2-yl)-4-(6-isopropoxypyrazin-2-yl)benzamide] | – | +++ (>60 fold (+++))
12 | CCC(NC(=O)c1ccc(-c2cncc(OC(C)C)n2)cc1F)c1csc(NS(=O)(=O)C2CC2)n1 (racemic) [R64, N-(1-(2-(cyclopropanesulfonamido)thiazol-4-yl)propyl)-2-fluoro-4-(6-isopropoxypyrazin-2-yl)benzamide] | – | ++ (>30-60 fold (++))
13 | CCOc1cncc(-c2ccc(NC(=O)C(F)(CC)c3cncc(NS(=O)(=O)C4CC4)n3)nc2)n1 (stereo not drawn) [P200, 2-(6-(cyclopropanesulfonamido)pyrazin-2-yl)-N-(5-(6-ethoxypyrazin-2-yl)pyridin-2-yl)-2-fluorobutanamide] | ++ (>30-60 fold (++)) | –
14 | CCOc1cncc(-c2ccc(NC(=O)C(CCOC)c3ccnc(NS(=O)(=O)C4CC4)n3)nc2)n1 (stereo not drawn) [P145, 2-(2-(cyclopropanesulfonamido)pyrimidin-4-yl)-N-(5-(6-ethoxypyrazin-2-yl)pyridin-2-yl)-4-methoxybutanamide] | +++ (>60 fold (+++)) | –
15 | Cc1cc(-c2cncc(C(F)(F)F)n2)ccc1C(=O)NC(C)(C)c1csc(NS(=O)(=O)C2CC2)n1 [R45, N-(2-(2-(cyclopropanesulfonamido)thiazol-4-yl)propan-2-yl)-2-methyl-4-(6-(trifluoromethyl)pyrazin-2-yl)benzamide] | – | ++ (>30-60 fold (++))
16 | COc1cc(-c2cncc(C(F)(F)F)n2)ccc1C(=O)NC(C)(C)c1csc(NS(=O)(=O)C2CC2)n1 [R48, N-(2-(2-(cyclopropanesulfonamido)thiazol-4-yl)propan-2-yl)-2-methoxy-4-(6-(trifluoromethyl)pyrazin-2-yl)benzamide] | – | ++ (>30-60 fold (++))
17 | CC(C)Oc1cncc(-c2ccc(NC(=O)C(C)(C)c3ccnc(NS(=O)(=O)C4CC4)n3)c(F)c2)n1 [P39] | + (2-30 fold (+)) | –
18 | CCOc1cncc(-c2ccc(C(=O)NC(CC)c3ccnc(NS(=O)(=O)C4CC4)n3)c(F)c2)n1 (stereo not drawn) [P216, N-(1-(2-(cyclopropanesulfonamido)pyrimidin-4-yl)propyl)-4-(6-ethoxypyrazin-2-yl)-2-fluorobenzamide] | +++ (>60 fold (+++)) | –
19 | CCC(C(=O)Nc1ccc(-c2cncc(OC)n2)cn1)c1ccnc(NS(=O)(=O)C2CC2)n1 (stereo not drawn) [P159, 2-(2-(cyclopropanesulfonamido)pyrimidin-4-yl)-N-(5-(6-methoxypyrazin-2-yl)pyridin-2-yl)butanamide] | +++ (>60 fold (+++)) | –
20 | CCOc1cncc(-c2ccc(NC(=O)C(CCOC)c3ccnc(NS(=O)(=O)C4CC4)n3)c(F)c2)n1 (stereo not drawn) [P146, 2-(2-(cyclopropanesulfonamido)pyrimidin-4-yl)-N-(4-(6-ethoxypyrazin-2-yl)-2-fluorophenyl)-4-methoxybutanamide] | +++ (>60 fold (+++)) | –
21 | CC(C)c1cncc(-c2ccc(NC(=O)C(C)(C)c3ccnc(NS(=O)(=O)C4CC4)n3)cc2)n1 [P132, 2-(2-(cyclopropanesulfonamido)pyrimidin-4-yl)-N-(4-(6-isopropylpyrazin-2-yl)phenyl)-2-methylpropanamide] | ++ (>30-60 fold (++)) | –
